{
  "source": "patent US6844328B2",
  "about": "“Polysaccharidic esters of N-derivatives of glutamic acid” (Eurand Pharmaceuticals Ltd., priority 2000, dated 2005)",
  "tested_on": "dihydrofolate reductase (DHFR)",
  "conditions": "MT 2.2×10^−5 M; 30° C.; absorbance at 340 nm",
  "protocol": "Reagents and test samples were added to 3 ml disposable cuvettes to the required volume of distilled water in the following order: H2O (0.1-0 ml), 1.5 M Na-acetate buffer (1 ml), 1.8 M KCl (1 ml), 3 mM NADPH (0.15 ml), test solution in PBS (0-0.1 ml), dihydrofolate reductase (DHFR) (ca. 0.01 Uμl) (5 μl). All reagents were purchased from Sigma. The DHFR was introduced, mixed and incubated at 30° C. for 2 min. The reaction was initiated by the addition of dihydrofolic acid (3 mM, 0.15 ml), and the decrease in absorbance with the time at 340 nm was followed.\nA control reaction, which contained 0.1 ml of PBS as test solution was included.",
  "data": [
    {"smiles": "CN(Cc1cnc2nc(N)nc(N)c2n1)c1ccc(C(=O)N[C@@H](CCC(=O)O)C(=O)O)cc1", "note": "[MT]", "values": [
      {"measurement": "inhibition of DHFR activity", "result": "completely inhibited"}
    ]}
  ]
}
